# Columns and labels:
# [1] = target: T1, B. anthracis wild-type gyrase (Bacillus anthracis, UniProt A0A6H3A7B1); format: biochemical; conditions: read-out: IC50, inhibition of DNA supercoiling
# E. coli wild-type gyrase [2] = target: T2, E. coli wild-type gyrase (Escherichia coli, UniProt P0AES4); format: biochemical; conditions: read-out: IC50, inhibition of DNA supercoiling
# [3] = target: T3, M. tuberculosis wild-type gyrase (Mycobacterium tuberculosis, UniProt P9WG47); format: biochemical
# E. coli GyrA^S83L gyrase [4] = target: T4, E. coli GyrA^S83L gyrase (Escherichia coli, UniProt P0AES4, S83L); format: biochemical
# [5] = target: T5, B. anthracis wild-type topoisomerase IV (Bacillus anthracis, UniProt A0A6H3AG07); format: biochemical; conditions: read-out: IC50, inhibition of DNA decatenation
# [6] = target: T6, E. coli wild-type topoisomerase IV (Escherichia coli, UniProt P0AFI2); format: biochemical; conditions: read-out: IC50, inhibition of DNA decatenation
# [7] = target: T7, E. coli ParC^S80L topoisomerase IV (Escherichia coli, UniProt P0AFI2, S80L); format: biochemical; conditions: read-out: IC50, inhibition of DNA decatenation
# [8] = target: T1, B. anthracis wild-type gyrase; format: biochemical
# E. coli wild-type gyrase [9] = target: T2, E. coli wild-type gyrase; format: biochemical
# [10] = target: T3, M. tuberculosis wild-type gyrase; format: biochemical; remark: listed apart in the source
# E. coli GyrA^S83L gyrase [11] = target: T4, E. coli GyrA^S83L gyrase; format: biochemical; remark: listed apart in the source
# [12] = target: T5, B. anthracis wild-type topoisomerase IV; format: biochemical
# [13] = target: T6, E. coli wild-type topoisomerase IV; format: biochemical
# [14] = target: T7, E. coli ParC^S80L topoisomerase IV; format: biochemical
# E. coli = conditions: cited from earlier work
# [15] = test system: Mycobacterium tuberculosis; conditions: cited from earlier work
# gyrase = conditions: cited from earlier work
# [16] = read-out: EC50, enhancement of single-stranded DNA cleavage
structure (smiles),measurement,setting,value
CC[C@H](C)n1cc(C)c2c(C(=O)NCc3c(C)cc(C)[nH]c3=O)cc(-c3ccc(N4CCNCC4)nc3)cc21 [GSK126],IC50,[1],~0.4 µM
same,IC50,E. coli wild-type gyrase [2],~2 µM
same,maximal decrease of supercoiling activity,[3],60%
same,IC50,"[3]; read-out: IC50, inhibition of DNA supercoiling",~75 µM
same,fold more potent in supercoiling inhibition than against wild-type enzyme,E. coli GyrA^S83L gyrase [4],5–10 fold
same,IC50,[5],~2.3 µM
same,IC50,[6],~1.4 µM
same,IC50,[7],~1.4 µM
same,induction of double-stranded DNA breaks,[8],no ability to induce double-stranded breaks
same,induction of double-stranded DNA breaks,E. coli wild-type gyrase [9],no ability to induce double-stranded breaks
same,levels of single-stranded DNA cleavage in the presence of ATP vs absence,E. coli wild-type gyrase [9],considerably lower
same,induction of double-stranded DNA breaks,[10],no ability to induce double-stranded breaks
same,enhancement of DNA cleavage,E. coli GyrA^S83L gyrase [11],no ability to enhance DNA cleavage
same,enhancement of double-stranded DNA breaks,[12],no enhancement of double-stranded breaks was observed
same,EC50,[12]; [16],< 0.5 µM
same,ability to induce DNA cleavage in the presence of ATP,[13],marginal
same,enhancement of double-stranded DNA breaks,[13],no enhancement of double-stranded breaks was observed
same,EC50,[13]; [16],< 0.5 µM
same,induction of DNA cleavage,[14],ineffective at inducing DNA cleavage
same,Minimal Inhibitory Concentration,E. coli,0.26 µM
same,activity against the bacterium in a screen,[15],moderate activity
COc1ccc2ncc(C#N)c(CCN3CCC(NCc4cc5c(cn4)OCS5)CC3)c2c1 [GSK299423],type of gyrase-mediated DNA breaks induced,gyrase,induces only gyrase-mediated single-stranded DNA breaks
O=c1ccc2ncc(=O)n3c2n1C[C@H]3CN1CCC(NCc2cc3c(cn2)OCCC3)CC1 [gepotidacin],type of gyrase-mediated DNA breaks induced,gyrase,induces only gyrase-mediated single-stranded DNA breaks
